The subject of data set [1] is MAP3K2/MAP3K3. Particulars: cited from earlier work; for inhibition of MAP3K2/MAP3K3-mediated phosphorylation of p47phox: substrate p47phox.
Data set [2] relates to mouse ALI models. The note with it: cited from earlier work.
The conditions of data set [3]: reported; cited from earlier work.
The conditions of data set [4]: reported; cited from earlier work. This is another data set of the same source.
Data set [5] concerns MAP3K2/MAP3K3. Nature of the data set: Inhibition of MAP3K2/MAP3K3-mediated phosphorylation of substrates (p47phox, MEK5). Type of data set: biochemical.
Data set [6] deals with mouse ALI models. Type of data set: in vivo.
Data set [7] relates to mouse coronavirus (MHV-1) induced acute lung injury model. Nature of the data set: Pulmonary permeability (FITC-albumin in BAL) in mouse coronavirus (MHV-1) induced acute lung injury model. The class given is in vivo, A/J mice.
Data set [8] has the same test system. The data set can be described thus: Survival and body weight loss in mouse coronavirus (MHV-1) induced acute lung injury model. The class given is in vivo, A/J mice. Particulars: 3 mg/kgbw once daily for 5 days since 24 hr after virus inoculation.
Data set [9] relates to neutrophils. Particulars: cited from earlier work.
For data set [10], the system named is patients. The note with it: cited from earlier work.

SMILES strings stand for the structures.

Broadly, the half-life is the time in which the quantity being followed falls by half.

Turning to `Cc1ccc(NC(=O)c2ccc(CN3CCN(C)CC3)cc2)cc1Nc1nccc(-c2cccnc2)n1` [imatinib], the “inhibition of MAP3K2/MAP3K3-mediated phosphorylation of p47phox” value in [1] is “do not inhibit”.
With `COC(=O)c1ccc2c(c1)NC(=O)/C2=C(\Nc1ccc(N(C)C(=O)CN2CCN(C)CC2)cc1)c1ccccc1` [nintedanib, Methyl (3Z)-3-{[(4-{methyl[(4-methylpiperazin-1-yl)acetyl]amino}phenyl)amino](phenyl)methylidene}-2-oxo-2,3-dihydro-1H-indole-6-carboxylate], the “inhibition of MAP3K2/MAP3K3-mediated phosphorylation of p47phox” value in [1] is reported as “also inhibits”. Moreover, in data set [2], the “reduction of ALI in mouse models” value is “reduce ALI”. For the same compound, in data set [3], the protein binding was 97.8%. Besides, the half-life in data set [4] was 10 to 15 h.
For `Cc1ccc(Nc2nccc(N(C)c3ccc4c(C)n(C)nc4c3)n2)cc1S(N)(=O)=O` [pazopanib, 5-({4-[(2,3-Dimethyl-2H-indazol-6-yl)methylamino]pyrimidin-2-yl}amino)-2-methylbenzenesulfonamide], the “affinity as p47phox substrate-specific inhibitor for MAP3K2 and 3” value in data set [5] is reported as “low nanomolar”. In data set [6] (acid and LPS ALI models), the “mortality rate in acid and LPS models” value was “impact mortality rate”. Moreover, the “prophylactic effect on lung injury in acid and LPS models” value in data set [6] (acid and LPS ALI models, prophylactic) is given as “prophylactic effect”. Moreover, the “ameliorating ALI in the two mouse ALI/ARDS models” value in data set [6] (two mouse ALI/ARDS models, dependent on MAP3K2/3 and ROS production) is given as “effective in ameliorating ALI”. In addition, the pulmonary permeability result in [7] (2 doses at 3 mg/kgbw retro-orbital (24, 33 hr after 6000 PFU MHV-1), FIG. 2) is listed as “significantly reduce”; in data set [7] (3 doses at 3 mg/kgbw retro-orbital (6, 21, 32 hr after 5000 PFU MHV-1), FIG. 1), “significantly reduce”; in [7] (one dose 3 mg/kgbw at 24 hr after virus inoculation, FIG. 3), “significantly reduce”; in data set [7] (one dose 3 mg/kgbw at 48 hr after virus inoculation, FIG. 4), “significantly reduce”; in [7] (one dose 3 mg/kgbw at 72 hr after virus inoculation, FIG. 5), “negligible effect”. Also, the survival rate entry in [8] (FIG. 6) is “does not affect”. Further, in data set [8] (FIG. 7), the body weight loss result is “does not affect”. Besides, in [1] (substrate MEK5), the “inhibition of other substrates of MAP3K2/MAP3K3 such as MEK5” value is on record as “μM levels”. Besides, in [1], the “inhibition of MAP3K2/MAP3K3-mediated phosphorylation of p47phox” value is recorded as “low nM levels”. Also, the ROS levels entry in [9] is “elevates ROS levels”. Besides, the protein binding in data set [3] is greater than 99.5%. The “ILD/pneumonitis reported in patients in the clinical trials” value in data set [10] (clinical trials) is recorded as 0.1%. Moreover, the “patients who developed a pneumothorax” value in data set [10] (randomized RCC trial) is “[t]wo of 290”. Further, in [10] (randomized STS trial (8/240)), the “pneumothorax occurrence in patients treated” value is 3%. Besides, the bioavailability in data set [4] is 14-21%. Further, in data set [4], the half-life is 30.9 to 31.9 h.

Source of the values: patent US20230181582A1, “COMPOSITIONS AND METHODS FOR TREATING LUNG INJURIES ASSOCIATED WITH VIRAL INFECTIONS” (Qx Therapeutics Inc., priority 2020, published 2023).
